Reference: PMC11681159, “Bee pollen peptides as potent tyrosinase inhibitors with anti-melanogenesis effects in murine b16f10 melanoma cells and zebrafish embryos” (Scientific Reports, 2024)
“Also recorded” adds a separate entry of the source. Ends that are not written are not given here.

What was measured:
mushroom TYR [1] = target: T1, mushroom TYR (Agaricus bisporus, UniProt C7FF04); assay: Kinetic study, Lineweaver-Burk, mono-phenolase; assay type: biochemical; conditions: Km rose, Vmax unchanged
T1 construct: purchased Sigma-Aldrich, Merck T3824
Procedure: (§1) It is necessary to determine the type of TYR inhibitory activity which takes place. This can be achieved through a modified version of an assay described by Feng et al.[39]. The process starts by dissolving the peptide VY-9 in deionized water at various concentrations (0, 0.25, 0.5, and 1 mM). Each VY-9 peptide sample at each concentration (35 µL) was combined 15 µL of mushroom TYR (333 U/mL in 50 mM PBS pH 6.8) prior to 5 min of incubation at 25 °C. Subsequently, various concentrations of substrate were introduced, namely 0–2 mM L-tyrosine in the case of mono-phenolase, and 0–12 mM L-DOPA for di-phenolase. These new mixtures underwent further incubation for 30 min at the same temperature of 25 °C. Upon completion, a spectrophotometer was used to measure the absorbance and determine the inhibitory activity at 490 nm. Lineweaver-Burk plots were then used in calculating Km and Vmax, the kinetic parameters. Km is indicated by the intersection point on the X-axis while Vmax is indicated by the intersection point on the Y-axis in the mode of TYR inhibition under examination. Construction of the plots linked the substrate concentration reciprocal on the X-axis and the absorbance reciprocal (at 490 nm) on the Y-axis, to represent the starting rate for the enzymatic reaction. […]

mushroom TYR [2] = target: T1, mushroom TYR; assay: Kinetic study, Lineweaver-Burk, di-phenolase; assay type: biochemical; conditions: Km rose, Vmax unchanged
Procedure: as §1

Trp-1 = assay: Western blot, TRP-1 protein; assay type: cell-based, mouse; conditions: B16F10, 48 h
Procedure: Western blot analysis was performed to measure TYR (TYR, TRP-1, TRP-2, and MITF) in B16F10 cells in line with the approach discussed by Yoon et al.[65]. whereby the B16F10 cells underwent treatment for 48 h using various peptide amounts ([…]) and also with arbutin (0.2 mM). Following this process, the cells were lysed using NP40 Cell Lysis Buffer with protease inhibitor cocktail supplementation. Next, 12% sodium dodecyl sulfate poly-acrylamide (SDS-PAGE) gel electrophoresis was used to extract equal quantities of protein from each sample, with subsequent transfer to PVD (polyvinylidene fluoride) membranes (Millipore, Bedford, MA, USA). The membrane was blocked overnight with 3% skimmed milk (w/v) in TBST with 0.5% Tween 20 at 4 °C and then washed thrice in TBST. The rabbit polyclonal anti-TYR antibody (dilution 1:1000), anti-TRP-1 antibody (dilution 1:1000), anti-TRP-2 antibody and anti-MITF antibody (dilution 1:1000) obtained from Abcam (USA), were used respectively to detect the TYR, TRP-1, TRP-2, and MITF bands. After thrice washing again in TBST, secondary antibodies (dilution 1:5000) were added to the membranes for 1 h of incubation at room temperature before another triplicate washing in TBST. […] The software facilitated the identification and quantification of protein expression levels.

zebrafish embryos = assay: Melanin inhibitory assay in zebrafish embryos; assay type: in vivo; conditions: 48 h after fertilization, vs control
Procedure: To perform the test of acute toxicity, a total of 20 fertilized zebrafish embryos were collected at around 4 h after fertilization and added to each well in a 12-well plate. These embryos then underwent treatment using different quantities of […] (2, 4, 6, 8, and 10 µM), while the negative control was distilled water and the positive control was 3,4-dichloroaniline. Incubation of the plate then took place until 48 h after fertilization at a temperature of 28.5 ± 1 °C. The test solutions were refreshed at 24 h after fertilization to allow the counting and removal of any dead embryos. Following exposure, a stereomicroscope (SZX16, Olympus, Japan) was used to record the embryo morphological effects. Meanwhile, a slightly modified version of a previously described melanin inhibitory assay was carried out[30]. The embryos were then homogenized using a cold lysis buffer (PBS pH 7.4, 1% Triton-X and 1% DMSF). The lysate then underwent 10 min of sonication before being placed in a centrifuge for 5 min at 10,000×g. The pellet was then removed from the centrifuge and dissolved in 200 µL of 1 N NaOH for 1 h at a temperature of 85 °C. This sample was subsequently vortexed and placed in the centrifuge for a further 5 min at 10,000×g. A microplate reader (Spectramax M5, Molecular Devices, USA) was then employed to determine the supernatant absorbance at 490 nm. Melanin content levels could then by calibrated by using the protein amount, and were reported in the form of a percentage compared to the untreated control. In the melanin inhibitory assay, the positive control used was phenylthiourea (PTU) solution (0.0015%).

T1 sequence (C7FF04 2-392): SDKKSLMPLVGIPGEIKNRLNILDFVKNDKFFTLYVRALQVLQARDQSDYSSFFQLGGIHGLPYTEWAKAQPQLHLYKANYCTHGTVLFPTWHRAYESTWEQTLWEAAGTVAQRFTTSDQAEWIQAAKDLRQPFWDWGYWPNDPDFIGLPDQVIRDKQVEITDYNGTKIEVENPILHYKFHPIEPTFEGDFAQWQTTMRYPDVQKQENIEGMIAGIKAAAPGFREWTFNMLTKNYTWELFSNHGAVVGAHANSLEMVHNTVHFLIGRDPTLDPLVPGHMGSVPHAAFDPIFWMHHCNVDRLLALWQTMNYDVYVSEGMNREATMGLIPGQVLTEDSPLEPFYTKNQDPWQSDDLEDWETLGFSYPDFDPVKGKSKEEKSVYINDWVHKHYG

VDGYPAAGY [VY-9, Val-Asp-Gly-Tyr-Pro-Ala- Ala-Gly-Tyr]
inhibition type, mono-phenolase (mushroom TYR [1]): competitive inhibitor
inhibition type, di-phenolase (mushroom TYR [2]): competitive inhibitor
TRP-1 protein expression vs control (Trp-1; 1.6 µM): the expression of all proteins decreased compared to the control
concentration from which TRP-1 protein expression gradually decreased (Trp-1; western blot): 0.2 µM
melanin content (zebrafish embryos; 4 µM): anti-melanogenic effects were observed; also recorded: the lowest among all treatment groups, it did not achieve statistical significance
melanin content (zebrafish embryos; any concentration (2–10 µM)): no significant reduction in melanin levels at any concentration
